In patent US20050058636A1, “Medicament against thrombotic diseases” (priority 2002, published 2005):

What was measured:
[1] = target: T1, platelet αIIbβ3-integrin with vitronectin (Homo sapiens, UniProt P04004); assay: Binding of vitronectin to αIIbβ3-integrin; details: vitronectin 2 μg/ml, immobilized αIIbβ3-integrin 5 μg/ml, 10 μM ZnCl2 (FIG. 3)
T1 sequence (P04004 20-478): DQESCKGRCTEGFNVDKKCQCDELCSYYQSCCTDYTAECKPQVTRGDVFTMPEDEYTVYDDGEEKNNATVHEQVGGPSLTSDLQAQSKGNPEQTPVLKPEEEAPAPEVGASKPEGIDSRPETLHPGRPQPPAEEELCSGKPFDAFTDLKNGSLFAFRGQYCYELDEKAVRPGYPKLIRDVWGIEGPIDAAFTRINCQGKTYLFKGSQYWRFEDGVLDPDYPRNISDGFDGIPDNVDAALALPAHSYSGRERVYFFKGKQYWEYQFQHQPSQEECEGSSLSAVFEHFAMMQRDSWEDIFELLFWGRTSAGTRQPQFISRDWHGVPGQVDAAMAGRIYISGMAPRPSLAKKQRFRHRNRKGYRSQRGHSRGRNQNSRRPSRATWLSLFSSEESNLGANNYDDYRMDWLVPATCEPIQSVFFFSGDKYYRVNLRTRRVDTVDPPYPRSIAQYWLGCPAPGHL
Method: Microtiter plates were coated with 5 μg/ml αIIbβ3-integrin in Tris-buffered saline, pH 7.4, containing 1 mM CaCl2, 1 mM MgCl2 overnight at 4° C. and then blocked with 3% (w/v) bovine serum albumin. Binding of multimeric vitronectin (2 μg/ml) was performed in a final volume of 50 μl Tris-buffered saline containing 0.1% Tween-20, 0.3% (w/v) bovine serum albumin, 1 mM CaCl2 and 1 mM MgCl2 for 2 h at 22° C. in the absence or presence of 10 μM ZnCl2 and different kininogen forms. After the incubation period, monoclonal anti-vitronectin antibody VN7 at a concentration of 125 ng/ml was added, followed by addition of 1:1000 diluted peroxidase-conjugated goat anti-mouse immunoglobulins, respectively. Binding was quantitated as described above.
FIG. 3 The binding of vitronectin (2 μg/ml) to immobilized αIIbβ3-integrin (5 μg/ml) in the absence or presence of increasing concentrations of PAI-1 (filled squares), HKa (filled circles) or GST-domain 5 (open circles) in a buffer containing 10 μM ZnCl2 was carried out. Specific binding is presented as absorbance at 405 nm.

platelet-rich plasma = assay: Aggregation of platelet-rich plasma; format: cell-based; details: Adenosin-diphosphate (5 μM)-induced; competitors each 1000 nM (FIG. 5)
Method: Platelet-rich plasma from fresh whole blood in sodium citrate was prepared by centrifugation of anticoagulated whole blood at 150 g for 20 min. After incubation of 0.45 ml of platelet rich plasma with different kininogen forms as indicated in the figure legends, and addition of 5 μl of […] at a final concentration of 5 μM, platelet aggregation was induced. Aggregation was quantitated by following the change in light transmission in a standardized aggregometer.
FIG. 5 Adenosin-diphosphate (5 μM)-induced aggregation of platelet-rich plasma was performed in the absence (−) or presence of GST-domain 5 (D5), or the peptides HK483 and HK486 (each 1000 nM). Platelet aggregation is presented as % of control.

PAI-1 = assay: Urokinase-mediated clot lysis in the presence of PAI-1; format: biochemical; details: not shown
platelets = assay: Platelet adhesion onto vitronectin-coated plates; format: cell-based; details: competitors each 250 nM (FIG. 4)
Method: Multiwell plates were coated with 5 μg/ml multimeric vitronectin (dissolved in bicarbonate buffer, pH 9.6) and blocked with 3% (wt/vol) bovine serum albumin for 16 h at 4° C. Platelets stained with calcein acetoxymethyl ester (calcein-AM, 2.5 μM) (15 min at 37° C. in the dark) at a density of 5×10^6 cells suspended in 50 μl HEPES-Tyrode buffer containing 4 mM MgCl2 were added together with the respective competitors and incubated for 30 min at 37° C. After three washes with phosphate buffered saline, bound platelets were lysed with 100 μl of lysis buffer (150 mM NaCl, 10 mM Tris-CH1, pH 7.5, 5 mM EDTA, 1% (wt/vol) NP-40, 1 mM phenyl-methylsulfonyl fluoride, 20 μg/ml soybean trypsin inhibitor) and quantified in a fluorescent plate reader (excitation filter 492 nm, emission filter 535 nm).
FIG. 4. The adhesion of platelets to vitronectin in the absence (−) or presence of HK, HKa, GST-domain 5(D5), or the peptides HK483 and HK486 (each 250 nM) was carried out. Cell adhesion is presented as % of control.

[2] = target: T2, binding of PAI-1 to vitronectin in PAI-1-depleted extracellular matrix of endothelial cells (Homo sapiens, UniProt P04004); assay: Binding of PAI-1 to endothelial cell matrix; details: 2 μg/ml PAI-1; competitors each 500 nM; 10 μM ZnCl2 (FIG. 1)
T2 construct: The extracellular matrix of human umbilical vein endothelial cells was prepared according to standard procedures; endogenous in cells; host or cells: extracellular matrix of human umbilical vein endothelial cells, glycine-treated
T2 sequence (P04004 20-478): T1 sequence (P04004 20-478)
Method: The extracellular matrix of human umbilical vein endothelial cells was prepared according to standard procedures. PAI-1-depleted extracellular matrix was obtained by subsequent incubation with glycine (0.1 M, pH 2.3) for 2 h at 25° C. Wells were washed and blocked with phosphate buffered saline containing 3% (wt/vol) bovine serum albumin before proceeding with binding assays. Binding of PAI-1 (2 μg/ml) to the extracellular matrix was performed in a final volume of 50 μl Tris-buffered saline containing 0.1% Tween-20, 0.3% (wt/vol) bovine serum albumin for 2 h at 22° C. in the absence or presence of […] and different kininogen forms. Following the incubation period and a washing step, bound PAI-1 was quantitated by anti-human PAI-1 monoclonal antibody 12A4, followed by addition of 1:1000 diluted peroxidase-conjugated goat anti-mouse immunoglobulins. The conversion of the substrate 2,2,-azino-di(3-ethyl) benz-thiazoline sulphate was monitored at 405 nm in a Thermomax microtiter plate reader. […]
FIG. 1 The binding of 2 μg/ml PAI-1 to PAI-1-depleted (2 h glycine preincubation) extracellular matrix of cultured endothelial cells was tested in the absence (−)or presence of HK, HKa, GST-domain 5 (D5), the peptides HK483 and HK486 (each 500 nM) in a buffer containing 10 μM ZnCl2. Specific binding of PAI-1 is presented as absorbance at 405 nm.

For “Gly-486-Lys-502 (GKHKNKGKKNGKHNGWK; UniProt P01042 504-520, looked up, fragment) [HK486, peptide derived from the carboxy-terminus of the domain 5 of HK]”, the “interaction of platelet αIIbβ3-integrin with vitronectin” value [1] was “block”, the “aggregation of platelet-rich plasma” value (platelet-rich plasma) was “inhibit” and the “urokinase-mediated clot lysis, which is inhibited in the presence of PAI-1” value (PAI-1) was “enhance”. For the same substance, the “αIIbβ3-integrin-mediated platelet adhesion to vitronectin” value (platelets) was “block” and the “binding of PAI-1 to vitronectin in PAI-1-depleted (glycine-treated) extracellular matrix of endothelial cells” value [2] was “inhibited”.
